{"source": "paper PMC8037910", "about": "“Effect of Chronic Administration of 5-(3-chlorophenyl)-4-Hexyl-2,4 -Dihydro-3H-1,2,4-Triazole-3-Thione (TP-315)—A New Anticonvulsant Drug Candidate—On Living Organisms” (International Journal of Molecular Sciences, 2021)", "key": {"[1]": {"test": "Quantification of TP-315 in mouse serum by HPLC-FL", "assay_type": "in vivo", "conditions": "male, Albino Swiss, ip, mice, 47.6 mg/kg i.p. for 14 days, 24 h after the last injection, mean ± SD, read-out: Mean measured concentration of TP-315 in the plasma of the mice", "procedure": "The experiments were carried out on adult male Albino Swiss mice weighing 20 ± 5 g. […] The mice from the control group (8 mice) received 0.9% NaCl solution i.p. once daily for 14 days.\nAfter completion of the experimental procedure (on the 15th day—24h after the last injection), the animals were decapitated. Their livers and kidneys were collected for histopathological examination, while blood was drawn for biochemical and morphological tests and for HPLC-FL determination of TP-315 in serum. […]\nSerum samples for recovery study and quantification of the examined compound using the standard addition method were prepared by spiking 0.1 mL of TP-315 free serum or the serum of treated mice with 0.4 mL deionized water and 0.5 mL of the appropriate standard solution, providing a calibration range between 0.0125–0.05 mg/L (0.0125, 0.025, 0.0375, and 0.05 mg/L) and QC levels of 0.06, 0.12, and 0.18 mg/L. Investigated serum samples were treated in the same manner as the QCs. […]\nThe HPLC analysis was carried out using an Elite LaChrom HPLC Merck-Hitachi (Merck, Darmstadt, Germany) equipped with a fluorescence detector (L-2485U) and a column thermostat Jetstream 2 Plus (100375, Knauer). […] The fluorescence detection was performed at an excitation of 265 nm and an emission of 411 nm. […]"}, "CYP3A4": {"target": "T1, CYP3A4 (Homo sapiens, UniProt P08684)", "T1 construct": "purchased Thermo Fisher Scientific", "T1 sequence (P08684 whole entry)": "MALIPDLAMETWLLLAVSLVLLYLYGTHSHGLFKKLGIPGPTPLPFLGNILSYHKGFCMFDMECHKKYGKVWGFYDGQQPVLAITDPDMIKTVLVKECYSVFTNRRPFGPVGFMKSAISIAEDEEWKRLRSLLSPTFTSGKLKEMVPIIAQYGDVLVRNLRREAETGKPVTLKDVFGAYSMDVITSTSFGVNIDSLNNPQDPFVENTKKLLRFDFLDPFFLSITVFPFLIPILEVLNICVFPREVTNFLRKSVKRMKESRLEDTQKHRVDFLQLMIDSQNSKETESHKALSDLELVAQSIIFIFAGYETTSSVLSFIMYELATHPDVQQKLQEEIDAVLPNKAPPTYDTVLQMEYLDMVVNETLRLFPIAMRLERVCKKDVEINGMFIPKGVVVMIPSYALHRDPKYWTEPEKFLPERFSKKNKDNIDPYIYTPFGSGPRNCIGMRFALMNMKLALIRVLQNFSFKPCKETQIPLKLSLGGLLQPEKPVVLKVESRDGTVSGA", "test": "Vivid CYP450 screening kit, CYP3A4", "assay_type": "biochemical", "conditions": "0.015 μg/mL, 20 min incubation, p > 0.05", "procedure": "(§1) Possible inhibitory effect of TP-315 on the catalytic activity of human cytochrome CYP450 enzymes was tested using Vivid CYP450 screening kits (Thermo Fisher Scientific, Waltham, MA, USA) according to the manufacturer’s standard procedure (Vivid BOMCC substrate CYP2B6 blue, Vivid DBOMF substrate CYP3A4 green, Vivid DBOMF substrate CYP3A5 green, Vivid EOMCC substrate CYP2C19 blue, Vivid MOBFC substrate CYP2D6 cyan). The experiment was carried out in the endpoint test mode (reading after 20 min of incubation). The test compound was dissolved in DMSO (starting concentrations, 2.5× concentrated); to avoid the influence of the solvent on the enzyme activity, the results were compared with the solvent control. The influence of TP-315 on the activity of selected enzymes was tested at concentrations of 0.015, 0.1, 0.5, 1, 2.5, 5, and 10 μg/mL. The positive control compounds (inhibitors) were miconazole (for CYP2C19 and CYP2B6), quinidine (for CYP2D6), and ketoconazole (for CYP3A4 and CYP3A5). Inhibitor concentrations were selected according to the manufacturer’s recommendations to achieve ≥90% inhibition. All inhibitors were obtained from Sigma-Aldrich (St. Louis, MO, USA). The BioTek Synergy H1 reader (BioTek Instruments, Inc., USA) was used to read the fluorescence according to the manufacturer’s guidelines. The tests were performed in duplicate."}, "CYP2C19": {"target": "T2, CYP2C19 (Homo sapiens, UniProt P33261)", "T2 construct": "purchased Thermo Fisher Scientific", "T2 sequence (P33261 whole entry)": "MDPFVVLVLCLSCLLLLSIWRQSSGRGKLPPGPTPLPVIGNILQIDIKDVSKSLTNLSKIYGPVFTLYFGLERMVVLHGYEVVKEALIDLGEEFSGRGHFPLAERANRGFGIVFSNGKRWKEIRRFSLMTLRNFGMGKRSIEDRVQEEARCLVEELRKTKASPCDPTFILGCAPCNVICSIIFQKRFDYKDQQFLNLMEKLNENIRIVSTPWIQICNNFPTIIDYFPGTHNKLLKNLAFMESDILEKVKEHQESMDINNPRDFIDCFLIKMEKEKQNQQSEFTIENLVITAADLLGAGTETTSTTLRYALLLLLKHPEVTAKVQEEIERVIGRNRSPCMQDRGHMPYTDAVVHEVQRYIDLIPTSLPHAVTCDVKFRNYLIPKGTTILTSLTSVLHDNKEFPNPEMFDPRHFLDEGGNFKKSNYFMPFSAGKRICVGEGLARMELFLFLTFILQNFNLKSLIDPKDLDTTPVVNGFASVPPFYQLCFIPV", "test": "Vivid CYP450 screening kit, CYP2C19", "assay_type": "biochemical", "conditions": "0.015 µg/mL, 20 min incubation, p < 0.05", "procedure": "as §1"}, "[2]": {"system": "maximal electroshock-induced seizure (MES)", "design": "method as in PMID 23291122, PMID 25226229, PMID 25090118", "conditions": "mice, cited from earlier work"}}, "note": "Read-outs that look alike come from different tables or passages of the source.", "data": [{"smiles": "CCCCCCn1c(-c2cccc(Cl)c2)n[nH]c1=S", "note": "[TP-315, 5-(3-Chlorophenyl)-4-hexyl-2,4-dihydro-3H-1,2,4-triazole-3-thione]", "values": [{"measurement": "concentration at 24 h", "setting": "[1]", "result": "0.0145 ± 0.0125", "unit": "µg/mL"}, {"measurement": "Inhibition of CYP3A4 activity compared to the control", "setting": "CYP3A4", "result": "did not statistically significantly inhibit"}, {"measurement": "Inhibition of CYP2C19 activity compared to the control", "setting": "CYP2C19", "result": "statistically significantly inhibited"}, {"measurement": "Anticonvulsant Activity in MES Test ED50 ± S.E.", "setting": "[2]; pretreatment time 15 min", "result": "47.6 ± 3.8", "unit": "mg/kg"}, {"measurement": "Anticonvulsant Activity in MES Test ED50 ± S.E.", "setting": "[2]; pretreatment time 30 min", "result": "68.3 ± 10.3", "unit": "mg/kg"}, {"measurement": "Anticonvulsant Activity in MES Test ED50 ± S.E.", "setting": "[2]; pretreatment time 60 min", "result": "98.1 ± 16.4", "unit": "mg/kg"}, {"measurement": "Anticonvulsant Activity in MES Test ED50 ± S.E.", "setting": "[2]; pretreatment time 120 min", "result": "159.7 ± 21.7", "unit": "mg/kg"}]}]}
